Target: IDO1 (Homo sapiens, UniProt P14902)
Assay: IDO1 Cellular Assay in HeLa Cells Stimulated with IFNγ
Type: cell-based
Details: read-out: HeLa Cell Potency, IC50
Method: IDO1 Cellular Assay in HeLa Cells Stimulated with IFNγ
HeLa cells were cultured in complete HeLa culture medium (90% EMEM, 10% heat-inactivated fetal bovine serum) and expanded to about 1×10^9 cells. The cells were then collected and frozen down at 1×10^7 cells/vial in 1 mL frozen medium (90% complete HeLa culture medium, 10% DMSO).
Compounds to be tested were serially diluted in ten 3-fold steps in DMSO starting from 10 mM DMSO stocks in Echo low volume plate(s). Compound dilutions or DMSO alone were then dispensed from the dilution plate(s) into Greiner black 384-well assay plate(s) (catalog #781086, 50 nL/well) using an Echo 550 acoustic liquid handler (Labcyte).
Frozen HeLa cells were thawed and transferred into HeLa assay medium (99% complete HeLa culture medium, 1% Pen/Strep) with 20 mL medium/vial of cells. The cells were spun down at 250 g in a table top centrifuge for 5 min and suspended in same volume of HeLa assay medium. The cells were then counted and adjusted to a density of 2×10^5 cells/mL in HeLa assay medium. Sterile L-tryptophan were added to the cells with final concentration of 300 uM L-tryptophan. A small aliquot (2 mL/plate) of HeLa cells were set aside and were not treated with IFNγ, to serve as the Max-E control.
HeLa cells with and without IFNγ were dispensed to the respective wells of 384-well assay plates containing the compounds. The plates were incubated for about 48 hours at a 37° C., 5% CO2 incubator. Afterwards, 12 μL of 0.5 M methyl isonipecotate in dimethyl sulfoxide were added into each well and the plates were sealed and incubated at 37° C. without CO2 overnight. The plates were centrifuged for 1 min at 200×g. The resulting fluorescence was measured in a Spectramax plate reader (Molecular Devices) with a 400 nm excitation filter and a 510 nm emission filter.
The fluorescence intensity of each well was corrected for the background observed in wells with non-IFNγ-treated cells and was expressed as a fraction of the intensity observed in wells of IFNγ-treated cells and DMSO only. Potencies were calculated by linear least squares fit to the four parameter logistic IC50 equation.

Sequence of IDO1 (P14902 whole entry): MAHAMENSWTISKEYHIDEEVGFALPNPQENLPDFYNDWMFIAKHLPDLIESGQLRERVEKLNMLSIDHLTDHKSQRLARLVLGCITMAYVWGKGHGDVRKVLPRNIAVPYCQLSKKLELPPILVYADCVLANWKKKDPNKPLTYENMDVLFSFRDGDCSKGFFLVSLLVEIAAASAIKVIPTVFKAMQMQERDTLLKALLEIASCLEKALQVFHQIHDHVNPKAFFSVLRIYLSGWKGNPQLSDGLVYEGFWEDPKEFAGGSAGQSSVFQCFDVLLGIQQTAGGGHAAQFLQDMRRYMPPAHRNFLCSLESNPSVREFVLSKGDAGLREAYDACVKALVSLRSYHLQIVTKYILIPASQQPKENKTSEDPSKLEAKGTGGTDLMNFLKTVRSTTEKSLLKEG

Row | SMILES | IC50
1 | O=C(Cn1nc(C(=O)N2CCC(O)CC2)c2c1CCC2)N1CCN(C2CCc3ccccc32)CC1 (single isomer, unassigned) [Example 436, 1-(4-(2,3-dihydro-1H-inden-1-yl)piperazin-1-yl)-2-(3-(4-hydroxypiperidine-1-carbonyl)-5,6-dihydrocyclopenta[c]pyrazol-1(4H)-yl)ethanone] | 22.8 nM
2 | O=C(Cn1nc(C(=O)N2CCC(O)CC2)c2c1CCC2)N1CCN(C2CCc3ccccc32)CC1 (single isomer, unassigned) [Example 437, 1-(4-(2,3-dihydro-1H-inden-1-yl)piperazin-1-yl)-2-(3-(4-hydroxypiperidine-1-carbonyl)-5,6-dihydrocyclopenta[c]pyrazol-1(4H)-yl)ethanone] | 810 nM
3 | O=C(Cn1nc(C(=O)N2CC[C@H](O)[C@H](F)C2)c2c1CCC2)N1CCN(C2CCc3ccccc32)CC1 (single isomer, unassigned) [Example 439] | 168 nM
4 | O=C(Cn1nc(C(=O)N2CC[C@H](O)[C@H](F)C2)c2c1CCC2)N1CCN(C2CCc3ccccc32)CC1 (single isomer, unassigned) [Example 440] | 2520 nM
5 | Cc1cccc(N2CCN(C(=O)Cn3nc(C(=O)N4CC[C@H](N5CCC(O)CC5)[C@H](F)C4)c4c3CC(F)(F)CC4)CC2)c1C (stereo in doubt) [Example 23, 2-[6,6-difluoro-3-[rac-(3R,4S)-3-fluoro-4-(4-hydroxy-1-piperidyl)piperidine-1-carbonyl]-5,7-dihydro-4H-indazol-1-yl]-1-[4-(2,3-dimethylphenyl)piperazin-1-yl]ethanone] | 77.5 nM
6 | Cc1c(Cl)cccc1N1CCN(C(=O)Cn2nc(C(=O)N3CC[C@H](O)C(C)C3)c3c2C[C@H]2C[C@@H]32)CC1 (stereo in doubt) [Example 351, 1-(4-(3-chloro-2-methylphenyl)piperazin-1-yl)-2-((3bR,4aR)-3-((3S,4S)-4-hydroxy-3-methylpiperidine-1-carbonyl)-3b,4,4a,5-tetrahydro-1H-cyclopropa[3,4]cyclopenta[1,2-c]pyrazol-1-yl)ethanone] | 1.26 nM
7 | Cc1c(Cl)cccc1N1CCN(C(=O)Cn2nc(C(=O)N3CCC(O)C(C)C3)c3c2C[C@H]2C[C@@H]32)CC1 (stereo in doubt) [Example 353, 1-(4-(3-chloro-2-methylphenyl)piperazin-1-yl)-2-((3bR,4aR)-3-((3R,4S)-4-hydroxy-3-methylpiperidine-1-carbonyl)-3b,4,4a,5-tetrahydro-1H-cyclopropa[3,4]cyclopenta[1,2-c]pyrazol-1-yl)ethanone] | 1.18 nM
8 | Cc1cccc(N2CCN(C(=O)Cn3nc(C(=O)N4CCC(O)C(F)C4)c4c3C[C@H]3C[C@@H]43)C3(CC3)C2)c1C (stereo in doubt) [Example 361, 1-(7-(2,3-dimethylphenyl)-4,7-diazaspiro[2.5]octan-4-yl)-2-((3bR,4aR)-3-((3S,4S)-3-fluoro-4-hydroxypiperidine-1-carbonyl)-3b,4,4a,5-tetrahydro-1H-cyclopropa[3,4]cyclopenta[1,2-c]pyrazol-1-yl)ethanone] | 3.01 nM
9 | Cc1cc(C#N)ccc1N1CCN(C(=O)Cn2nc(C(=O)N3C[C@@H](C)O[C@@H](C)C3)c3c2CCC3)CC1 [Example 26, 4-[4-[2-[3-[(2S,6R)-2,6-dimethylmorpholine-4-carbonyl]-5,6-dihydro-4H-cyclopenta[c]pyrazol-1-yl]acetyl]piperazin-1-ium-1-yl]-3-methyl-benzonitrile,2,2,2-trifluoroacetate] | 478 nM
10 | COc1c(F)cc(N2CCN(C(=O)Cn3nc(C(=O)N4C[C@@H](C)O[C@@H](C)C4)c4c3CCC4)CC2)cc1F [Example 27, 1-[4-(3,5-difluoro-4-methoxyphenyl)piperazin-1-yl]-2-{3-[(2R,6S)-2,6-dimethylmorpholine-4-carbonyl]-5,6-dihydrocyclopenta[c]pyrazol-1(4H)-yl}ethan-1-one] | 110 nM
11 | C[C@@H]1CN(C(=O)c2nn(CC(=O)N3CCN(c4ccc(F)cc4)CC3)c3c2CCC3)C[C@H](C)O1 [Example 28, 2-{3-[(2R,6S)-2,6-dimethylmorpholine-4-carbonyl]-5,6-dihydrocyclopenta[c]pyrazol-1(4H)-yl}-1-[4-(4-fluorophenyl)piperazin-1-yl]ethan-1-one] | 337 nM
12 | COc1cccc(N2CCN(C(=O)Cn3nc(C(=O)N4C[C@@H](C)O[C@@H](C)C4)c4c3CCC4)CC2)c1 [Example 29, 2-{3-[(2R,6S)-2,6-dimethylmorpholine-4-carbonyl]-5,6-dihydrocyclopenta[c]pyrazol-1(4H)-yl}-1-[4-(3-methoxyphenyl)piperazin-1-yl]ethan-1-one] | 316 nM
13 | C[C@@H]1CN(C(=O)c2nn(CC(=O)N3CCN(c4cc(F)cc(F)c4F)CC3)c3c2CCC3)C[C@H](C)O1 [Example 30, 2-{3-[(2R,6S)-2,6-dimethylmorpholine-4-carbonyl]-5,6-dihydrocyclopenta[c]pyrazol-1(4H)-yl}-1-[4-(2,3,5-trifluorophenyl)piperazin-1-yl]ethan-1-one] | 474 nM

More lines, now with the values ahead:

Row | IC50 | SMILES
14 | 22.3 nM | Cc1cccc(N2CCN(C(=O)Cn3nc(C(=O)N4CCC(O)(CF)C4)c4c3CCC4)CC2)c1C (single isomer, unassigned) [Example 482, (R or S)-1-(4-(2,3-dimethylphenyl)piperazin-1-yl)-2-(3-(3-(fluoromethyl)-3-hydroxypyrrolidine-1-carbonyl)-5,6-dihydro-cyclopenta[c]pyrazol-1(4H)-yl)ethanone]
15 | 42.6 nM | Cc1cccc(N2CCN(C(=O)Cn3nc(C(=O)N4CCC(O)(CF)C4)c4c3CCC4)CC2)c1C (single isomer, unassigned) [Example 484, (S or R)-1-(4-(2,3-dimethylphenyl)piperazin-1-yl)-2-(3-(3-fluoromethyl)-3-hydroxypyrrolidine-1-carbonyl)-5,6-dihydrocyclopenta[c] pyrazol-1(4H)-yl) ethanone]
16 | 393 nM | Cc1cccc(N2CCN(C(=O)C(C)n3nc(C(=O)N4CCC(O)CC4)c4c3CCC4)CC2)c1C (single isomer, unassigned) [Example 489, (R or S)-1-(4-(2,3-dimethylphenyl)piperazin-1-yl)-2-(3-(4-hydroxypiperidine-1-carbonyl)-5,6-dihydro-cyclopenta[c]pyrazol-1(4H)-yl)propan-1-one]
17 | 195 nM | Cc1cccc(N2CCN(C(=O)Cn3nc(C(=O)N4CC[C@@H](N5CCC(O)CC5)[C@@H](F)C4)c4c3CC(F)(F)CC4)CC2)c1C (stereo in doubt) [Example 24, 2-[6,6-difluoro-3-[rac-(3S,4R)-3-fluoro-4-(4-hydroxy-1-piperidyl)piperidine-1-carbonyl]-5,7-dihydro-4H-indazol-1-yl]-1-[4-(2,3-dimethylphenyl)piperazin-1-yl]ethanone]
18 | 130 nM | Cc1cccc(N2CCN(C(=O)Cn3nc(C(=O)N4CCCC4)c4c3CC(C)(C)CC4)CC2)c1C [Example 3, 1-[4-(2,3-dimethylphenyl)piperazin-1-yl]-2-[6,6-dimethyl-3-(pyrrolidine-1-carbonyl)-5,7-dihydro-4H-indazol-1-yl]ethanone]
19 | 165 nM | Cc1cccc(N2CCN(C(=O)Cn3nc(C(=O)N4CCCC4)c4c3CCOC4)CC2)c1C [Example 4, 1-[4-(2,3-dimethylphenyl)piperazin-1-yl]-2-[3-(pyrrolidine-1-carbonyl)-6,7-dihydro-4H-pyrano[4,3-c]pyrazol-1-yl]ethanone]
20 | 8.13 nM | Cc1cccc(N2CCN(C(=O)Cn3nc(C(=O)N4CCCC4)c4c3CCC(F)(F)C4)CC2)c1C [Example 6, 2-(5,5-difluoro-3-(pyrrolidine-1-carbonyl)-4,5,6,7-tetrahydro-1H-indazol-1-yl)-1-(4-(2,3-dimethylphenyl)piperazin-1-yl)ethanone]
21 | 381 nM | Cc1cccc(N2CCN(C(=O)Cn3nc(C(=O)N4CC[C@H](O)[C@H](F)C4)c4c3C(F)(F)CCC4)CC2)c1C [Example 20, 2-(7,7-Difluoro-3-((3R,4S)-3-fluoro-4-hydroxypiperidine-1-carbonyl)-4,5,6,7-tetrahydro-1H-indazol-1-yl)-1-(4-(2,3-dimethylphenyl)piperazin-1-yl)ethanone]
22 | 5.13 nM | Cc1cccc(N2CCN(C(=O)Cn3nc(C(=O)N4CCC(O)CC4)c4c3CC(F)(F)CC4)CC2)c1C [Example 21, 2-(6,6-difluoro-3-(4-hydroxypiperidine-1-carbonyl)-4,5,6,7-tetrahydro-1H-indazol-1-yl)-1-(4-(2,3-dimethylphenyl)piperazin-1-yl)ethanone]
23 | 27.5 nM | Cc1cccc(N2CCN(C(=O)Cn3nc(C(=O)N4CCN(C(=O)CO)CC4)c4c3CC(F)(F)CC4)CC2)c1C [Example 22, 2-[6,6-difluoro-3-[4-(2-hydroxyacetyl)piperazine-1-carbonyl]-5,7-dihydro-4H-indazol-1-yl]-1-[4-(2,3-dimethylphenyl)piperazin-1-yl]ethanone]
